Key:
[1] = tested on: extracellular interleukin IL-6; assay: Contagious aging (bystander effect) model: extracellular IL-6 by ELISA in R6 young fibroblasts treated with product, then MCR20 conditioned medium; format: cell-based, human; details: for Extracellular IL-6, N1i: R6 passage young human dermal fibroblasts, treated then placed in contact with MCR20 conditioned medium, compositions diluted in 1,3-propanediol to 0.1% by mass
Description: This method uses a specific antibody for human IL-6 attached to the bottom of the wells of a measuring plate. The samples to be assayed are added to the wells and the IL-6 present in the samples binds to the immobilized antibody. The wells are then washed and another biotinylated anti-human IL-6 antibody is added.
The wells are once again rinsed to remove the nonbound antibody, and streptavidin conjugated to the enzyme HRP (horseradish peroxidase) is added to the wells. The wells are once again rinsed and the HRP substrate tetramethylbenzidine is added to the wells.
The intensity of the color develops proportionately to the amount of IL-6 bound. The “stop” solution changes the color from blue to yellow, and the color intensity is measured at 450 nm by spectrophotometry. The IL-6 concentration is calculated by referring to a calibration range.
The particular process thus comprises the following steps: • Step i) of culturing of culturing human dermal fibroblasts, taken at the R19 passage in T25 flasks, • Step ii) of amplification of the cells obtained on conclusion of step i) to obtain a medium conditioned with senescent cells or “MC R20”. Amplification of the cells obtained on conclusion of step i) is performed by seeding said cells in Petri dishes at 0.3 M/Petri dish. After amplification for 4 days in Petri dishes, the culture medium of all the dishes was changed and then recovered after 48 hours of incubation. This recovered medium corresponds to the medium conditioned with senescent cells containing the SMS mediators (MCR20). • Step iii) of culturing human dermal fibroblasts, taken at the R5 passage in T25 flasks, • a step iv) of amplification of the cells obtained on conclusion of step iii) to obtain to obtain “young” or “R6” cells in the amplification phase, Steps iii) and iv) are performed in parallel with steps i) and ii).

β-galactosidase = assay: Contagious aging (bystander effect) model: β-galactosidase activity by X-gal staining in R6 young fibroblasts treated with product, then MCR20 conditioned medium; format: cell-based; details: R6 passage young human dermal fibroblasts, treated then placed in contact with MCR20 conditioned medium; compositions diluted in 1,3-propanediol to 0.1% by mass
Description: Measurement of the activity of the β-galactosidase enzyme is performed at the metabolic level, and even more particularly with a measurement involving colorimetric enzymatic detection.
Briefly, the β-galactosidase present in the cells reacts specifically with one of its substrates, X-gal (or 5-bromo-4-chloro-3-indolyl-β-D-galactopyranoside (C14H15BrClNO6)) which is deposited on the cell lawns. This substrate is a galactoside, a galactose heteroside, bonded to a substituted indole nucleus.
The particular process thus comprises the following steps: • Step i) of culturing of culturing human dermal fibroblasts, taken at the R19 passage in T25 flasks, • Step ii) of amplification of the cells obtained on conclusion of step i) to obtain a medium conditioned with senescent cells or “MC R20”. Amplification of the cells obtained on conclusion of step i) is performed by seeding said cells in Petri dishes at 0.3 M/Petri dish. After amplification for 4 days in Petri dishes, the culture medium of all the dishes was changed and then recovered after 48 hours of incubation. […]

Compound | Ratio R1=[(N10−N1i)×100]/[(N10−N1)] for extracellular IL-6 ([1]; N1 = 8.96 (untreated, unstressed), N10 = 41.38 (untreated, MCR20)) | Extracellular IL-6, N1i [1] | β-galactosidase, N2i (β-galactosidase)
OCCCO [1,3-propanediol] | R1 = 13.35 | N1i = 37.05 ± 2.57 pg/μg of proteins | N2i = 13.40 ± 2.69 number of “blue” positive cells/total number of cells
O=C1O[C@H]([C@@H](O)CO)C(O)=C1O [vitamin C, ascorbic acid, reference compound] |  | N1i = 27.31 ± 3.87 pg/μg of proteins | 
CC(=O)Oc1c(C)c(C)c2c(c1C)CC[C@@](C)(CCC[C@H](C)CCC[C@H](C)CCCC(C)C)O2 [vitamin E, D-α-tocopheryl acetate, reference compound] |  |  | N2i = 2.99 ± 0.45 number of “blue” positive cells/total number of cells

Reference: patent US20210382039A1, “METHOD FOR ASSESSING THE ABILITY OF A SUBSTANCE OR OF A COMPOSITION TO PREVENT, SLOW OR ELIMINATE THE SIGNS OF AGEING OF THE SKIN OR OF THE LIPS” (SOCIETE D'EXPLOITATION DE PRODUITS POUR LES INDUSTRIES …, priority 2018, published 2021)
